Laboratory results reported in US10638756B2, “Molecules having pesticidal utility, and intermediates, compositions, and processes, related thereto” (Dow AgroSciences LLC, priority 2017, dated 2020).

Legend:
Format in all cases: in vivo
[1] = tested on: Beet Armyworm (Spodoptera exigua); assay: Bioassay on Beet Armyworm (BAW), 128-well diet tray assay; conditions: Spodoptera exigua, 168 h; 50 μg/cm^2 on artificial diet, second instar larvae, five to seven days; read-out: BAW % Control (or Mortality) rating
[2] = tested on: Cabbage Looper (Trichoplusia ni); assay: Bioassay on Cabbage Looper (CL), 128-well diet tray assay; conditions: 168 h, 50 μg/cm^2 on artificial diet, second instar larvae, five to seven days, read-out: CL % Control (or Mortality) rating
In short: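 Activity is mean percent mortality over eight wells of second-instar larvae exposed to diet treated at 50 μg/cm^2 for 5–7 days at 25° C.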

[3] = tested on: Yellow Fever Mosquito (Aedes aegypti); conditions: about 1 day-old larvae, 3 days, scored on mortality
Experimental: Certain molecules disclosed in this document were tested against YFM using procedures described in the following paragraph. In the reporting of the results, the “GPA & YFM Rating Table” was used (See Table Section).
Master plates containing 400 μg of a molecule dissolved in 100 μL of dimethyl sulfoxide (DMSO) (equivalent to a 4000 ppm solution) are used. A master plate of assembled molecules contains 15 μL per well. To this plate, 135 μL of a 90:10 water/acetone mixture is added to each well. A robot (Biomek® NXP Laboratory Automation Workstation) is programmed to dispense 15 μL aspirations from the master plate into an empty 96-well shallow plate (“daughter” plate). There are 6 reps (“daughter” plates) created per master. The created “daughter” plates are then immediately infested with YFM larvae.
The day before plates are to be treated, mosquito eggs are placed in Millipore water containing liver powder to begin hatching (4 g. into 400 mL). After the “daughter” plates are created using the robot, they are infested with 220 μL of the liver powder/larval mosquito mixture (about 1 day-old larvae). After plates are infested with mosquito larvae, a non-evaporative lid is used to cover the plate to reduce drying. Plates are held at room temperature for 3 days prior to grading. After 3 days, each well is observed and scored based on mortality. The results are indicated in the table entitled “Table ABC: Biological Results” (See Table Section).

Compound | mortality at 50 µg/cm2 [1] [%] | mortality at 50 µg/cm2 [2] [%] | YFM % Control (or Mortality) rating [3]
O=C(NNc1ncccn1)c1ccc(/C(F)=C/C(c2cc(Cl)cc(Cl)c2)C(F)(F)F)cc1C(F)(F)F (stereo not drawn) [F56, (Z)-4-(3-(3,5-Dichlorophenyl)-1,4,4,4-tetrafluorobut-1-en-1-yl)-N′-(pyrimidin-2-yl)-2-(trifluoromethyl)benzohydrazide] | 50 to 100 | 50 to 100 | A (80-100)
CNN(CC(=O)NCC(F)(F)F)C(=O)c1ccc(/C(F)=C/C(c2cc(Cl)c(Cl)c(Cl)c2)C(F)(F)F)cc1C(F)(F)F (stereo not drawn) [F183, (Z)-2-(2-Methyl-1-(4-(1,4,4,4-tetrafluoro-3-(3,4,5-trichlorophenyl)but-1-en-1-yl)-2-(trifluoromethyl)benzoyl)hydrazinyl)-N-(2,2,2-trifluoroethyl)acetamide] | 50 to 100 | 50 to 100 | A (80-100)
N#Cc1ccc(NNC(=O)c2ccc(/C(F)=C/C(c3cc(Cl)c(Cl)c(Cl)c3)C(F)(F)F)cc2C(F)(F)F)cc1 (stereo not drawn) [F111, (Z)—N′-(4-Cyanophenyl)-4-(1,4,4,4-tetrafluoro-3-(3,4,5-trichlorophenyl)but-1-en-1-yl)-2-(trifluoromethyl)benzohydrazide] | 50 to 100 | 50 to 100 | A (80-100)
O=C(NNc1ncccn1)c1ccc(/C(F)=C/C(c2ccc(Cl)c(Cl)c2)C(F)(F)F)cc1C(F)(F)F (stereo not drawn) [F117] | 50 to 100 | 50 to 100 | A (80-100)
CCN(NC(=O)c1ccc(/C(F)=C/C(c2cc(Cl)c(Cl)c(Cl)c2)C(F)(F)F)cc1C(F)(F)F)c1ncccn1 (stereo not drawn) [F130, (Z)—N′-Ethyl-N′-(pyrimidin-2-yl)-4-(1,4,4,4-tetrafluoro-3-(3,4,5-trichlorophenyl)but-1-en-1-yl)-2-(trifluoromethyl)benzohydrazide] | 50 to 100 | 50 to 100 | A (80-100)
O=C(NNc1ncccn1)c1ccc(/C(F)=C/C(c2cc(Br)cc(Br)c2)C(F)(F)F)cc1C(F)(F)F (stereo not drawn) [F176, (Z)-4-(3-(3,5-Dibromophenyl)-1,4,4,4-tetrafluorobut-1-en-1-yl)-N′-(pyrimidin-2-yl)-2-(trifluoromethyl)benzohydrazide] | 50 to 100 | 50 to 100 | A (80-100)
Cc1cc(F)ccc1NNC(=O)c1ccc(/C(F)=C/C(c2cc(Cl)c(Cl)c(Cl)c2)C(F)(F)F)cc1C(F)(F)F (stereo not drawn) [F35, (Z)—N′-(4-Fluoro-2-methylphenyl)-4-(1,4,4,4-tetrafluoro-3-(3,4,5-trichlorophenyl)but-1-en-1-yl)-2-(trifluoromethyl)benzohydrazide] | 50 to 100 | 50 to 100 | A (80-100)
O=C(NNc1nnn[nH]1)c1ccc(/C(F)=C/C(c2cc(Cl)c(Cl)c(Cl)c2)C(F)(F)F)cc1C(F)(F)F (stereo not drawn) [F95, (Z)-4-(1,4,4,4-Tetrafluoro-3-(3,4,5-trichlorophenyl)but-1-en-1-yl)-N′-(1H-tetrazol-5-yl)-2-(trifluoromethyl)benzohydrazide] | 50 to 100 | 50 to 100 | A (80-100)
CN(NC(=O)c1ccc(/C(F)=C/C(c2cc(Cl)c(Cl)c(Cl)c2)C(F)(F)F)cc1C(F)(F)F)c1ccccc1 (stereo not drawn) [F11, (Z)—N′-Methyl-N′-phenyl-4-(1,4,4,4-tetrafluoro-3-(3,4,5-trichlorophenyl)but-1-en-1-yl)-2-(trifluoromethyl)benzohydrazide] | 50 to 100 | 50 to 100 | A (80-100)
C=CCN(NC(=O)c1ccc(/C(F)=C/C(c2cc(Cl)c(Cl)c(Cl)c2)C(F)(F)F)cc1C(F)(F)F)c1ncccn1 (stereo not drawn) [F152, (Z)—N′-Allyl-N′-(pyrimidin-2-yl)-4-(1,4,4,4-tetrafluoro-3-(3,4,5-trichlorophenyl)but-1-en-1-yl)-2-(trifluoromethyl)benzohydrazide] | 50 to 100 | 50 to 100 | A (80-100)
CN(NC(=O)c1ccc(/C(F)=C/C(c2cc(Cl)c(Cl)c(Cl)c2)C(F)(F)F)cc1C(F)(F)F)c1ccc(C#N)cn1 (stereo not drawn) [F82, (Z)—N′-(5-Cyanopyridin-2-yl)-N′-methyl-4-(1,4,4,4-tetrafluoro-3-(3,4,5-trichlorophenyl)but-1-en-1-yl)-2-(trifluoromethyl)benzohydrazide] | 50 to 100 | 50 to 100 | A (80-100)
O=C(NN1CCS(=O)(=O)CC1)c1ccc(/C(F)=C/C(c2cc(Cl)c(Cl)c(Cl)c2)C(F)(F)F)cc1C(F)(F)F (stereo not drawn) [F122, (Z)—N-(1,1-dioxidothiomorpholino)-4-(1,4,4,4-tetrafluoro-3-(3,4,5-trichlorophenyl)but-1-en-1-yl)-2-(trifluoromethyl)benzamide] | 50 to 100 | 50 to 100 | D (No activity noticed in this bioassay)
O=C(NNc1ccccn1)c1ccc(/C(F)=C/C(c2cc(Cl)c(Cl)c(Cl)c2)C(F)(F)F)cc1C(F)(F)F (stereo not drawn) [F9, (Z)—N′-(Pyridin-2-yl)-4-(1,4,4,4-tetrafluoro-3-(3,4,5-trichlorophenyl)but-1-en-1-yl)-2-(trifluoromethyl)benzohydrazide] | 50 to 100 | 50 to 100 | A (80-100)
N#Cc1ccc(/C(F)=C/C(c2cc(Cl)c(Cl)c(Cl)c2)C(F)(F)F)cc1C(F)(F)F (stereo not drawn) [C25, (Z)-4-(1,4,4,4-Tetrafluoro-3-(3,4,5-trichlorophenyl)but-1-en-1-yl)-2-(trifluoromethyl)benzonitrile] | 50 to 100 | 50 to 100 | A (80-100)
CN(NC(=O)c1ccc(/C(F)=C/C(c2ccc(Br)c(C(F)(F)F)c2)C(F)(F)F)cc1C(F)(F)F)c1ncccn1 (stereo not drawn) [F39, (Z)-4-(3-(4-Bromo-3-(trifluoromethyl)phenyl)-1,4,4,4-tetrafluorobut-1-en-1-yl)-N′-methyl-N′-(pyrimidin-2-yl)-2-(trifluoromethyl)benzohydrazide] | 50 to 100 | 50 to 100 | A (80-100)
